In patent US20250129092A1, “COMPOUNDS USEFUL IN MODULATION OF AHR SIGNALLING” (JAGUAHR THERAPEUTICS PTE LTD, priority 2021, published 2025):

What was measured:
AhR [1] = target: T1, AhR (Homo sapiens, UniProt P35869); test: AhR antagonism in U937 cells (Promega P450-Glo assay); assay type: cell-based; set-up: endogenous in cells; host or cells: U937 cells; conditions: CYP1A1 activity readout (Luciferin-CEE), head names VAF347, average, read-out: U937 Antagonist pIC50-VAF347: av. pIC50 (converted)
T1 sequence (P35869 11-848): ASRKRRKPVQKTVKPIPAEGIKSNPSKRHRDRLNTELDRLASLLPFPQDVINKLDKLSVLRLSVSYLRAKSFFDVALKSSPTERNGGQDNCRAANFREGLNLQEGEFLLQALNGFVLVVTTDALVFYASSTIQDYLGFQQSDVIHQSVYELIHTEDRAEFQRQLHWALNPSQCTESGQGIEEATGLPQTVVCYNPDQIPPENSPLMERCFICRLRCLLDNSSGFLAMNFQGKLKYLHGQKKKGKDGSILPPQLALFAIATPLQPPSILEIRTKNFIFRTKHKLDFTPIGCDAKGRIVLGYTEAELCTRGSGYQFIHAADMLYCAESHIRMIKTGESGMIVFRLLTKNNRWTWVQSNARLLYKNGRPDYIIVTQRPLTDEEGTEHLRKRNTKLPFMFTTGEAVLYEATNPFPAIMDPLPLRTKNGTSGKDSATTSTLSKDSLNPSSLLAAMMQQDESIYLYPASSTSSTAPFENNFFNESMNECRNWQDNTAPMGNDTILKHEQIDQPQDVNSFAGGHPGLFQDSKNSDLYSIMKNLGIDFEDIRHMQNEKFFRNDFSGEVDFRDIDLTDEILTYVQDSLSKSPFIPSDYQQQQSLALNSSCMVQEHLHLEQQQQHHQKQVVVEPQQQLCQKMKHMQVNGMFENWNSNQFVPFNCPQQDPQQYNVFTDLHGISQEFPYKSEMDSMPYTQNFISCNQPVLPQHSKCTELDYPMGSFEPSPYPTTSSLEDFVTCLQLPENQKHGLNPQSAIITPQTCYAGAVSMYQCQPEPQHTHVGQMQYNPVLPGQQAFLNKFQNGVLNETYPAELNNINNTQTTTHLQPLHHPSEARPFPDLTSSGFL
Experimental: In Vitro Assay 1: AhR Antagonism in U937 Cells (Promega P450-Glo™ Assay)
AhR antagonism was assessed in LJ937 cells (myeloid lineage cell line derived from a human histiocytic lymphoma). Ligand binds the AhR in the cytoplasm, and the AhR-ligand complex translocates to the nucleus and forms a heterodimer with AhR nuclear translocator (Arnt). This complex binds the xenobiotic response element (XRE) in the 5′ upstream region of the CYP1A1 promoter, enhancing CYP1A1 expression. CYP1A1 activity is subsequently determined by assessing the conversion of Luciferin-CEE to luciferin, which in turn reacts with luciferase to produce light. The amount of light produced is directly proportional to cytochrome P450 activity. U937 cells in Ultraculture serum free media (Lonza) were plated at 100,000 cells per well in a round bottom 96 well tissue culture plate. […] The plates were then placed in an incubator at 37° C., ≥85% humidity, 5% CO2 for 24 hrs. After aspiration of the supernatant the CYP1A1 substrate Luciferin-CEE ([Final] 83 μM) was added and incubated for 3 hrs before the reaction was stopped by adding luciferin detection reagent and luminescence was read after 20 minutes.

AhR [2] = target: T1, AhR; test: AhR antagonism in human PBMCs - inhibition of IL-22 release; assay type: cell-based; set-up: endogenous in cells; conditions: human PBMCs activated with CD3/CD28 agonist mixture, 72 hrs, IL-22 ELISA; average; read-out: hPBMC Inhibition of CD3/CD28 induced IL-22 release: av. pIC50 (converted)
Description: In Vitro Assay 3: AhR Antagonism in Human Peripheral Blood Mononuclear Cells (PBMCs)-Inhibition of Interleukin-22 (IL-22) Release.
PBMCs were isolated from human peripheral blood using Lymphoprep™ and diluted to 1×10^6 cells per ml in RPMI media containing […] foetal bovine serum, 1% penicillin-streptomycin and 1% non essential amino acids. PBMCs were subsequently activated with 1p1 per 100,000 cells of a CD3/CD28 agonist mixture (human T Cell TransAct™ (Miltenyi Biotec)) and then plated at 100,000 cells per well in a round bottom 96 well tissue culture plate. One hour after stimulation seven concentrations of each test compound or vehicle (final [DMSO] 0.2%) were added. The plates were then placed in an incubator at 37° C., ≥85% humidity, 5% […] for 72 hrs before the media was removed and stored at −20° C. until cytokine analysis. IL-22 was measured using human IL-22 DuoSet ELISA (R&D systems) according to the manufacturer's instructions.

Row | IC50 (AhR [1]) [nM] | IC50 (AhR [2]) [nM] | Compound
1 | 2.19 | 3.02 | C[C@H]1CNc2nc(-c3cncc(F)c3)nc(NCCc3c[nH]c4ccccc34)c2O1 [Example 29, (6S)-2-(5-fluoro-3-pyridyl)-N-[2-(1H-indol-3-yl)ethyl]-6-methyl-7,8-dihydro-6H-pyrimido[5,4-b][1,4]oxazin-4-amine]
2 | > 759 | > 2000 | Cc1ncc(-c2nc3c(c(NC4CCc5[nH]c6cccnc6c5C4)n2)OCCN3)s1 (stereo not shown) [Example 34, 2-(2-methylthiazol-5-yl)-N-(6,7,8,9-tetrahydro-5H-pyrido[3,2-b]indol-8-yl)-7,8-dihydro-6H-pyrimido[5,4-b][1,4]oxazin-4-amine]
3 | > 1000 | 977 | COC[C@@H]1COc2c(N[C@@H]3CCc4[nH]c5ccccc5c4C3)nc(-c3cnc(C)s3)nc2N1CCN(C)C [Example 35, (7R)-8-[2-(dimethylamino)ethyl]-7-(methoxymethyl)-2-(2-methylthiazol-5-yl)-N-[(3R)-2,3,4,9-tetrahydro-1H-carbazol-3-yl]-6,7-dihydropyrimido[5,4-b][1,4]oxazin-4-amine]
4 | 251 | 123 | Cc1ncc(-c2nc(N[C@@H]3CCc4[nH]c5ccccc5c4C3)c3c(n2)N(CCO)CCO3)s1 [Example 37, 2-[2-(2-methylthiazol-5-yl)-4-[[(3R)-2,3,4,9-tetrahydro-1H-carbazol-3-yl]amino]-6,7-dihydropyrimido[5,4-b][1,4]oxazin-8-yl]ethanol]
5 | 3.8 | < 1.02 | COC[C@H]1COc2c(NCCc3c[nH]c4ccccc34)nc(-c3ccc[nH]c3=O)nc2N1 [Example 45, (S)-3-(4-((2-(1H-indol-3-yl)ethyl)amino)-7-(methoxymethyl)-7,8-dihydro-6H-pyrimido[5,4-b][1,4]oxazin-2-yl)pyridin-2(1H)-one]
6 | 0.759 | < 1.35 | COC[C@@H]1COc2c(NCCc3c[nH]c4ccccc34)nc(-c3cncc(F)c3)nc2N1 [Example 46, (7R)-2-(5-fluoro-3-pyridyl)-N-[2-(1H-indol-3-yl)ethyl]-7-(methoxymethyl)-7,8-dihydro-6H-pyrimido[5,4-b][1,4]oxazin-4-amine]
7 | 12 | 18.6 | COC[C@@H]1COc2c(NCCc3c[nH]c4ccccc34)nc(-c3ccc(F)cc3)nc2N1 [Example 56, (7R)-2-(4-fluorophenyl)-N-[2-(1H-indol-3-yl)ethyl]-7-(methoxymethyl)-7,8-dihydro-6H-pyrimido[5,4-b][1,4]oxazin-4-amine]
8 | 3.09 | 2 | COC[C@@H]1COc2c(NCCc3c[nH]c4ccccc34)nc(-c3cccc(F)c3)nc2N1 [Example 57, (7R)-2-(3-fluorophenyl)-N-[2-(1H-indol-3-yl)ethyl]-7-(methoxymethyl)-7,8-dihydro-6H-pyrimido[5,4-b][1,4]oxazin-4-amine]
9 | 4.27 | 7.41 | Cc1ncc(-c2nc(NCCc3c[nH]c4ccccc34)c3c(n2)N[C@H](CO)CO3)s1 [Example 60, [(7R)-4-[2-(1H-indol-3-yl)ethylamino]-2-(2-methylthiazol-5-yl)-7,8-dihydro-6H-pyrimido[5,4-b][1,4]oxazin-7-yl]methanol]

The next lines start with the compound.

Row | Compound | IC50 (AhR [1]) [nM] | IC50 (AhR [2]) [nM]
10 | C[C@@H]1CNc2nc(-c3cncc(F)c3)nc(NCCc3c[nH]c4ccccc34)c2O1 [Example 30, (6R)-2-(5-fluoro-3-pyridyl)-N-[2-(1H-indol-3-yl)ethyl]-6-methyl-7,8-dihydro-6H-pyrimido[5,4-b][1,4]oxazin-4-amine] | 5.5 | 3.98
11 | Fc1cncc(-c2nc(NCCc3c[nH]c4ccccc34)c3c(n2)N[C@@H](C(F)(F)F)CO3)c1 [Example 32, (7R)-2-(5-fluoro-3-pyridyl)-N-[2-(1H-indol-3-yl)ethyl]-7-(trifluoromethyl)-7,8-dihydro-6H-pyrimido[5,4-b][1,4]oxazin-4-amine] | 2.51 | 14.5
12 | Cc1ncc(-c2nc(NCCc3c[nH]c4ccccc34)c3c(n2)N(C2COC2)CCO3)s1 [Example 33, N-[2-(1H-indol-3-yl)ethyl]-2-(2-methylthiazol-5-yl)-8-(oxetan-3-yl)-6,7-dihydropyrimido[5,4-b][1,4]oxazin-4-amine] | 14.1 | 13.5
13 | Cc1ncc(-c2nc(N[C@@H]3CCc4[nH]c5ccccc5c4C3)c3c(n2)N(CCN(C)C)[C@H](CO)CO3)s1 [Example 36, [(7R)-8-[2-(dimethylamino)ethyl]-2-(2-methylthiazol-5-yl)-4-[[(3R)-2,3,4,9-tetrahydro-1H-carbazol-3-yl]amino]-6,7-dihydropyrimido[5,4-b][1,4]oxazin-7-yl]methanol] | > 1000 | 1070
14 | CN1CCOc2c(NCCc3c[nH]c4ccccc34)nc(-c3ccc[nH]c3=O)nc21 [Example 44, 3-(4-((2-(1H-indol-3-yl)ethyl)amino)-8-methyl-7,8-dihydro-6H-pyrimido[5,4-b][1,4]oxazin-2-yl)pyridin-2 (1H)-one] | 10.2 | < 1.55
15 | COC[C@@H]1COc2c(nc(-c3ccc[nH]c3=O)nc2OCCc2c[nH]c3ccccc23)N1 [Example 48, 3-[(7R)-4-[2-(1H-indol-3-yl)ethoxy]-7-(methoxymethyl)-7,8-dihydro-6H-pyrimido[5,4-b][1,4]oxazin-2-yl]-1H-pyridin-2-one] | 4.37 | 1.62
16 | COC[C@@H]1COc2c(NCCc3c[nH]c4ccccc34)nc(-c3cc(F)cc(F)c3)nc2N1 [Example 49, (7R)-2-(3,5-difluorophenyl)-N-[2-(1H-indol-3-yl)ethyl]-7-(methoxymethyl)-7,8-dihydro-6H-pyrimido[5,4-b][1,4]oxazin-4-amine] | 3.39 | 6.92
17 | Fc1cccc(-c2nc3c(c(NCCc4c[nH]c5ccccc45)n2)OCCN3)c1 [Example 50, 2-(3-fluorophenyl)-N-[2-(1H-indol-3-yl)ethyl]-7,8-dihydro-6H-pyrimido[5,4-b][1,4]oxazin-4-amine] | 5.5 | 22.4
18 | COC[C@@H]1COc2c(nc(-c3cnc(C)s3)nc2N[C@@H]2CCc3[nH]c4ccccc4c3C2)N1 [Example 53, (7R)-7-(methoxymethyl)-2-(2-methylthiazol-5-yl)-N-[(3R)-2,3,4,9-tetrahydro-1H-carbazol-3-yl]-7,8-dihydro-6H-pyrimido[5,4-b][1,4]oxazin-4-amine] | 81.3 | 759
19 | Cc1ncc(-c2nc3c(c(N[C@@H]4CCc5[nH]c6ccccc6c5C4)n2)OC[C@@H](CO)N3)s1 [Example 54, [(7R)-2-(2-methylthiazol-5-yl)-4-[[(3R)-2,3,4,9-tetrahydro-1H-carbazol-3-yl]amino]-7,8-dihydro-6H-pyrimido[5,4-b][1,4]oxazin-7-yl]methanol] | 229 | 501
20 | COC[C@@H]1COc2c(NCCc3c[nH]c4ccccc34)nc(-c3cnc(C)s3)nc2N1 [Example 59, (7R)—N-[2-(1H-indol-3-yl)ethyl]-7-(methoxymethyl)-2-(2-methylthiazol-5-yl)-7,8-dihydro-6H-pyrimido[5,4-b][1,4]oxazin-4-amine] | 3.8 | 3.24
